The target in series [1] is Sodium-dependent noradrenaline transporter (Homo sapiens, UniProt P23975).
Series [2] relates to Cynomolgus monkey. The experiment in a line: Ratio of drug level in thalamus to striatum in cynomolgus monkey. The format is ADME, organism-based, Macaca fascicularis. The following applies: in vivo.
Series [3] has as its system Brain. The experiment in a line: Drug uptake in cynomolgus monkey brain assessed as radio activity at 1.35 mCi after 24 mins. As to conditions: in vivo, 0.4 h. The format is ADME, tissue-based, Macaca fascicularis.
For series [4], the system named is Cynomolgus monkey. The experiment in a line: Ratio of drug level in cerebellum to thalamus in cynomolgus monkey at 1.35 mCi after 93 mins. The format is ADME, organism-based, Macaca fascicularis. As to conditions: in vivo, 1.55 h.
Series [5] has as its system Cynomolgus monkey. The experiment in a line: Ratio of drug level in cerebellum to striatum in cynomolgus monkey at 1.35 mCi after 93 mins. As to conditions: in vivo, 1.55 h. The format is ADME, organism-based, Macaca fascicularis.
Series [6] has as its system Cynomolgus monkey. The experiment in a line: Ratio of drug level in cerebellum to mesencephalon in cynomolgus monkey at 1.35 mCi after 93 mins. The format is ADME, organism-based, Macaca fascicularis. The following applies: in vivo, 1.55 h.
Series [7] relates to Cynomolgus monkey. The experiment in a line: Ratio of drug level in cerebellum to occipital cortex in cynomolgus monkey at 1.35 mCi after 93 mins. The format is ADME, organism-based, Macaca fascicularis. As to conditions: in vivo, 1.55 h.
Series [8] relates to Brain. The experiment in a line: Drug uptake in cynomolgus monkey brain assessed as radio activity at 1.35 mCi after 42 mins. As to conditions: in vivo, 0.7 h. The format is ADME, tissue-based, Macaca fascicularis.
Series [9] has as its system Cynomolgus monkey. The experiment in a line: Ratio of drug level in cerebellum to locus coreuleus in cynomolgus monkey at 1.35 mCi after 93 mins. The following applies: in vivo, 1.55 h. The format is ADME, organism-based, Macaca fascicularis.
Series [10] has as its system Cynomolgus monkey. The experiment in a line: Ratio of drug level in striatum to lower brainstem in cynomolgus monkey at 1.41 mCi after 93 mins. The format is ADME, organism-based, Macaca fascicularis. As to conditions: in vivo, 1.55 h.
Series [11] has as its system Cynomolgus monkey. The experiment in a line: Ratio of drug level in striatum to thalamus in cynomolgus monkey at 1.41 mCi after 93 mins. The format is ADME, organism-based, Macaca fascicularis. The following applies: in vivo, 1.55 h.
The subject of series [12] is Brain. The experiment in a line: Drug uptake in cynomolgus monkey brain assessed as radio activity at 1.41 mCi after 80 mins. The format is ADME, tissue-based, Macaca fascicularis. As to conditions: in vivo.
Series [13] has as its system Cynomolgus monkey. The experiment in a line: Ratio of drug level in striatum to mesencephalon in cynomolgus monkey at 1.41 mCi after 93 mins. The format is ADME, organism-based, Macaca fascicularis. As to conditions: in vivo, 1.55 h.
For series [14], the system named is Cynomolgus monkey. The experiment in a line: Ratio of drug level in striatum to occipital cortex in cynomolgus monkey at 1.41 mCi after 93 mins. The format is ADME, organism-based, Macaca fascicularis. As to conditions: in vivo, 1.55 h.
In series [15] the test system is Cynomolgus monkey. The experiment in a line: Ratio of drug level in NET-rich thalamus to NET-poor striatum in cynomolgus monkey. The format is ADME, organism-based, Macaca fascicularis. As to conditions: in vivo.
For series [16], the system named is Cynomolgus monkey. The experiment in a line: Ratio of drug level in striatum to cerebellum in cynomolgus monkey at 1.41 mCi after 93 mins. The format is ADME, organism-based, Macaca fascicularis. As to conditions: in vivo, 1.55 h.

SMILES strings stand for the structures.

Chain of Sodium-dependent noradrenaline transporter (P23975 whole entry): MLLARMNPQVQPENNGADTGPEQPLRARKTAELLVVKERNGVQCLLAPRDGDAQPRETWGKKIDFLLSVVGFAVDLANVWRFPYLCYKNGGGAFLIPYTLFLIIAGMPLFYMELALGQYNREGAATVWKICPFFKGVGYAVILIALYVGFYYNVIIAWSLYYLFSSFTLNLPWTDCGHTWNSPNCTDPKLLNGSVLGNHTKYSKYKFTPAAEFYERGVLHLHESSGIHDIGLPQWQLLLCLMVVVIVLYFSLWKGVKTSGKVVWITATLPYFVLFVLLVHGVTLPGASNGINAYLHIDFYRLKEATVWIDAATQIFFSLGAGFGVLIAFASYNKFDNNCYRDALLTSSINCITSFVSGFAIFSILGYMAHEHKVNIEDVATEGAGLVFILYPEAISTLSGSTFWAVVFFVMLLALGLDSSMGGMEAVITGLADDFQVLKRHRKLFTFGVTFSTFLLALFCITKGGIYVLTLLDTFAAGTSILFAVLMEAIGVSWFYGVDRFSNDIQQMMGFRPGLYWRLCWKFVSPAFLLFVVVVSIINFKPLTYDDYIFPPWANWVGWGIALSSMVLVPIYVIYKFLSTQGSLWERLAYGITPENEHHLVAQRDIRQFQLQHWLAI

The term Ki denotes a dissociation constant, usually derived from enzyme kinetics or from competition with a known ligand. In turn, `COc1ccccc1O[C@@H](c1ccccc1)[C@@H]1CNCCO1` showed a Ki in series [1] of 7.93 nM.
As to `[11CH3]NC[C@@H](O)CC12CCC(c3ccccc31)c1ccccc12`, the Ratio in series [2] turned out to be 1.5.
For `COc1ccc(F)cc1C[C@](O)(C1CCCC1)[C@@H]1CNCCO1`, the inhibition constant (Ki) in [1] amounted to 10.8 nM.
In series [1], `CNC[C@@H](O)CN1c2ccccc2CCc2ccccc21` yielded an inhibition constant (Ki) of 8.29 nM.
Turning to `[11CH3]Oc1ccc(F)cc1C[C@](O)(C1CCCC1)[C@@H]1CNCCO1`, the Drug uptake in series [3] worked out at 3.5 %ID. Also, the Ratio in series [4] came out at 1.35; in series [5], 1.2; in series [6], 1.2; in series [7], 1.3; in series [8] it was 3.5 %ID; in series [9], 1.3.
In the case of `[11CH3]NC[C@@H](O)CN1c2ccccc2CCc2ccccc21`, the Ratio in series [10] was 1.2; in series [11], 1.35; in [13], 1.2; in series [14], 1.35; in series [15], 1.35; in series [16] it was 1. Moreover, the Drug uptake in [12] was found to be 1.1 %ID.

(Values after ChEMBL document CHEMBL1145526, “Synthesis of 11C-labelled (R)-OHDMI and CFMME and their evaluation as candidate radioligands for imaging central norepinephrine transporters with PET” (Bioorg Med Chem, 2007).)
